Experiment [1] deals with HuO9 (Osteosarcoma). The experiment in a line: Bliss excess, mean over the matrix (fraction); higher = more synergy. A digest of the protocol:
(§1)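 Bliss excess equals the observed combination effect minus the expected value EA + EB − EA·EB, where EA and EB are the effects of each agent alone. Combination Emax is the second-highest inhibition within the matrix. Inhibition was scaled from CellTiter-Glo 2.0 luminescence, with 0 set by vehicle wells and 1 by blank wells, after 72 hours of two-drug dosing of cells plated in 1536-well plates.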

The subject of experiment [2] is HLE (Hepatocellular Carcinoma). The description is as above. A digest of the protocol: as §1
Experiment [3] deals with MSTO-211H (Mesothelioma). Described as above. A digest of the protocol: as §1
Experiment [4] has as its system P31-FUJ (Acute Myeloid Leukemia). The description is as above. In short, it runs like this:
as §1

The test system of experiment [5] is HCC1143 (Breast Carcinoma). The description is as above. A digest of the protocol:
as §1

For experiment [6], the system named is TYK-nu (Ovarian Carcinoma). Described as above. A digest of the protocol:
as §1

Experiment [7] has as its system SKN-3 (Head and Neck Carcinoma). The experiment is described as above. In short, it runs like this: as §1
Experiment [8] concerns SNG-M (Endometrial Carcinoma). Described as above. A digest of the protocol:
as §1

The test system of experiment [9] is SW48 (Colorectal Carcinoma). Described as above. A digest of the protocol:
as §1

Experiment [10] deals with BICR78 (Oral Cavity Carcinoma). Described as above. A digest of the protocol: as §1
Experiment [11] relates to CAL-39 (Other Solid Carcinomas). The experiment is described as above. In short, it runs like this:
as §1

The subject of experiment [12] is WSU-DLCL2 (B-Cell Non-Hodgkin's Lymphoma). The experiment is described as above. In short, it runs like this:
as §1

The test system of experiment [13] is SNU-61 (Colorectal Carcinoma). Described as above. A digest of the protocol: as §1
The test system of experiment [14] is KG-1 (Acute Myeloid Leukemia). The description is as above. In short, it runs like this: as §1
Experiment [15] concerns PA-TU-8902 (Pancreatic Carcinoma). The experiment in a line: combination Emax (second highest fraction inhibited in the dose matrix, 72 h); higher = more inhibition; extreme values may be limits of the assay. A digest of the protocol:
as §1

The test system of experiment [16] is EFM-192A (Breast Carcinoma). The experiment is described as above. A digest of the protocol:
as §1

Experiment [17] deals with HCC1143 (Breast Carcinoma). The description is as above. In short, it runs like this:
as §1

In experiment [18] the test system is YT (Other Blood Carcinomas). Described as above. In short, it runs like this:
as §1

Experiment [19] relates to 647-V (Bladder Carcinoma). Described as above. A digest of the protocol:
as §1

Experiment [20] concerns SK-LMS-1 (Other Solid Carcinomas). Described as above. A digest of the protocol:
as §1

Take `COc1cccc(OCCCN)c1-c1cc(Nc2cnc(C#N)cn2)n[nH]1` [Prexasertib] + C=CCn1c(=O)c2cnc(Nc3ccc(N4CCN(C)CC4)cc3)nc2n1-c1cccc(C(C)(C)O)n1 [AZD1775] (first compound max 1 µM, partner max 1 µM): the Bliss excess in experiment [1] came out at 0.109; in experiment [2], 0.0125; in experiment [3], 0.0083; in experiment [4], 0.0104; in [5] it was 0.0271; in [6], 0.0459. Further, the Bliss excess was 0.119 in [7]; 0.0698 in experiment [8]; 0.1 in experiment [9]; 0.0619 in [10]; 0.0679 in [11]; 0.138 in experiment [12]. Besides, the Bliss excess in experiment [13] was -0.0124; in experiment [14] it was 0.0038. Moreover, the “combination Emax” value came out at 0.605 in experiment [15]; 0.416 in experiment [16]; 0.925 in experiment [17]; 0.971 in experiment [18]; 0.925 in experiment [19]; 0.711 in experiment [20].
As for `COc1cccc(OCCCN)c1-c1cc(Nc2cnc(C#N)cn2)n[nH]1` [Prexasertib] + CCc1c2c(nc3ccc(O)cc13)-c1cc3c(c(=O)n1C2)COC(=O)[C@]3(O)CC [SN-38] (first compound max 1 µM, 7x7, partner max 0.3 µM), the Bliss excess was -0.0301 in experiment [1]; -0.0359 in experiment [2]; -0.0857 in [3]; -0.0507 in experiment [4]; 0.0452 in experiment [5]; -0.0899 in [6]. Further, the Bliss excess in experiment [7] was 0.0703; in [8], -0.0534; in experiment [9] it was -0.0333; in experiment [10] it was -0.0236; in experiment [11], -0.0308; in experiment [12], -0.006. In addition, the Bliss excess in [13] is 0.0163; in experiment [14], -0.0454. Besides, the “combination Emax” value turned out to be 0.752 in experiment [15]; 0.318 in [16]; 0.928 in [17]; 0.96 in experiment [18]; 1 in experiment [19]; 0.891 in [20].
With `COc1cccc(OCCCN)c1-c1cc(Nc2cnc(C#N)cn2)n[nH]1` [Prexasertib] + CN(C)CCCOc1ccc(-c2ccc3ncc4c(c3c2)n(C2CCOCC2)c(=O)n4C)cn1 [AZD0156] (first compound max 1 µM, 7x7, partner max 1 µM), the Bliss excess was -0.0958 in experiment [1]; -0.0646 in [2]; -0.0164 in experiment [3]; 0.009 in experiment [4]; -0.0453 in [5]; -0.0627 in experiment [6]. Moreover, the Bliss excess is 0.011 in [7]; 0.0305 in [8]; -0.0227 in [9]; -0.0292 in experiment [10]; 0.0099 in experiment [11]; 0.0086 in experiment [12]. For the same compound, the figures for the Bliss excess in experiment [13] and in experiment [14] were -0.0459 and -0.0289, respectively. Further, the “combination Emax” value in experiment [15] amounted to 0.586; in experiment [16], 0.233; in experiment [17], 0.912; in experiment [18], 0.964; in experiment [19], 0.671; in experiment [20], 0.612.
`COc1cccc(OCCCN)c1-c1cc(Nc2cnc(C#N)cn2)n[nH]1` [Prexasertib] + C[C@@H]1COCCN1C2=NC(=NC(=C2)C3(CC3)[S@](=N)(=O)C)C4=C5C=CNC5=NC=C4 [AZD6738] (first compound max 1 µM, 7x7, partner max 10 µM): the Bliss excess in experiment [1] was -0.0638; in experiment [2], 0; in [3] it was -0.0197; in experiment [4], 0.0092; in [5], -0.026; in experiment [6] it was -0.0604. Besides, the Bliss excess was -0.0347 in [7]; 0.0329 in [8]; 0.0015 in [9]; -0.0057 in [10]; 0.0251 in experiment [11]; 0.0096 in experiment [12]. For the same compound, the Bliss excess in experiment [13] was -0.0693; in [14], -0.0531. Also, the “combination Emax” value in experiment [15] was 0.601; in experiment [16], 0.188; in experiment [17], 0.938; in experiment [18] it was 0.918; in [19] it was 0.703; in experiment [20] it was 0.637.
For the compound `COc1cccc(OCCCN)c1-c1cc(Nc2cnc(C#N)cn2)n[nH]1` [Prexasertib] + Cc1cc2ncnn2cc1Nc1ncc2c(n1)n(C1CCOCC1)c(=O)n2C [AZD7648] (first compound max 1 µM, 7x7, partner max 10 µM), the Bliss excess in experiment [1] is -0.105; in [2], -0.064; in [3], -0.0059; in experiment [4], -0.0255; in [5] it was -0.0318; in [6], -0.072. Moreover, the Bliss excess in [7] was -0.0564; in [8] it was -0.0284; in experiment [9], -0.0344; in experiment [10], -0.0379; in experiment [11], -0.0122; in [12] it was 0.0071. The Bliss excess in [13] is -0.0123; in experiment [14], -0.0264. Further, the “combination Emax” value stood at 0.598 in [15]; 0.284 in experiment [16]; 0.883 in experiment [17]; 0.928 in experiment [18]; 0.757 in experiment [19]; 0.637 in experiment [20].
`COc1cccc(OCCCN)c1-c1cc(Nc2cnc(C#N)cn2)n[nH]1` [Prexasertib] + O=C(c1cc(Cc2n[nH]c(=O)c3ccccc23)ccc1F)N1CCN(C(=O)C2CC2)CC1 [Olaparib] (first compound max 1 µM, 7x7, partner max 10 µM): the Bliss excess in experiment [1] was 0.0553; in experiment [2], -0.0458; in [3], -0.0597; in [4] it was -0.0141; in [5] it was -0.18; in experiment [6], -0.0934. Moreover, the Bliss excess was -0.0113 in experiment [7]; -0.124 in experiment [8]; -0.0795 in [9]; -0.0261 in [10]; -0.008 in experiment [11]; -0.0311 in [12]. The Bliss excess was -0.0407 in [13] and -0.0343 in [14]. For the same compound, the “combination Emax” value in experiment [15] is 0.501; in [16], 0.143; in experiment [17] it was 0.735; in [18] it was 0.966; in experiment [19] it was 0.843; in experiment [20] it was 0.676.
Turning to `COc1cc2c(cc1OCCCCCOc1cc3c(cc1OC)C(=O)N1C=C(C)C[C@H]1C=N3)N=C[C@@H]1CC(C)=CN1C2=O` [SG3199] + O=C(c1cc(Cc2n[nH]c(=O)c3ccccc23)ccc1F)N1CCN(C(=O)C2CC2)CC1 [Olaparib] (first compound max 0.001 µM, 7x7, partner max 10 µM), the Bliss excess in experiment [1] is -0.0273; in [2], -0.0323; in [3], -0.0175; in experiment [4], -0.0645; in [5], -0.0216; in experiment [6] it was -0.046. Moreover, the Bliss excess is -0.0276 in experiment [7]; -0.0222 in experiment [8]; -0.0321 in [9]; -0.0456 in experiment [10]; -0.0306 in experiment [11]; -0.0058 in experiment [12]. In addition, the Bliss excess in experiment [13] is -0.0453; in experiment [14], 0.0015. For the same compound, the “combination Emax” value in [15] worked out at 0.0749; in experiment [16] it was 0.129; in [17], 0.225; in [18], 0.25; in experiment [19], 0.276; in experiment [20], 0.2.
